Measurements published in patent publication US8318781B2, “G-protein-conjugated receptor agonist” (Japan Science and Technology Agency, priority 2007, dated 2012).

Experiments:
human GPR40 (hGPR40) = molecular target: T1, human GPR40 (hGPR40) (Homo sapiens, UniProt O14842); assay: Determination of intracellular Ca2+ concentration (FLIPR), cell line TXGPR40; format: cell-based; settings: for EC50 / [Ca^2+]/GPR40 10 μM (ratio vs. LA): TXGPR40 cells; for EC50: maximum fluorescence intensity vs ligand concentration, read-out: [Ca^2+]/GPR40 pEC50 (converted); for agonistic activity for GPR40 (in words): cells in which GPR40 has been transgenically expressed; for [Ca^2+]/GPR40 10 μM (ratio vs. LA): relative fluorescence intensity vs LA at 10 μM
T1 construct: expressed in transfected cells; doxycycline-inducible expression vector
T1 sequence (O14842 whole entry): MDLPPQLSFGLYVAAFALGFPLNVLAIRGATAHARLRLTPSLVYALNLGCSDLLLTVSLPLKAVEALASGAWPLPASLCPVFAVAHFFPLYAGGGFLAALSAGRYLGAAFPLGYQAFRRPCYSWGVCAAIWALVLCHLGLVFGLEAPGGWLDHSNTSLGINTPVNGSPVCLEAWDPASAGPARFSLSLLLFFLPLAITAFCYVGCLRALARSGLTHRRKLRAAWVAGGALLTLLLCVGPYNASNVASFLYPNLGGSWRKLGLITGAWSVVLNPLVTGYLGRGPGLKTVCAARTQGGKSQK

human GPR120 (hGPR120) = molecular target: T2, human GPR120 (hGPR120) (Homo sapiens, UniProt Q5NUL3); assay: Determination of intracellular Ca2+ concentration (FLIPR), cell line TXGPR120; format: cell-based; settings: for selectivity between GPR40 and GPR120 (in words), from Tables 3 and 4: GPR40 versus GPR120, Ca2+ and ERK results; for EC50 / [Ca^2+]/GPR120 10 μM (ratio vs. LA): TXGPR120 cells; for EC50: maximum fluorescence intensity vs ligand concentration, read-out: [Ca^2+]/GPR120 pEC50 (converted); for agonistic activity for hGPR120 (in words): cells in which GPR120 has been transgenically expressed; for [Ca^2+]/GPR120 10 μM (ratio vs. LA): relative fluorescence intensity vs LA at 10 μM
T2 construct: expressed in transfected cells; doxycycline-inducible expression vector
T2 sequence (Q5NUL3 1-361): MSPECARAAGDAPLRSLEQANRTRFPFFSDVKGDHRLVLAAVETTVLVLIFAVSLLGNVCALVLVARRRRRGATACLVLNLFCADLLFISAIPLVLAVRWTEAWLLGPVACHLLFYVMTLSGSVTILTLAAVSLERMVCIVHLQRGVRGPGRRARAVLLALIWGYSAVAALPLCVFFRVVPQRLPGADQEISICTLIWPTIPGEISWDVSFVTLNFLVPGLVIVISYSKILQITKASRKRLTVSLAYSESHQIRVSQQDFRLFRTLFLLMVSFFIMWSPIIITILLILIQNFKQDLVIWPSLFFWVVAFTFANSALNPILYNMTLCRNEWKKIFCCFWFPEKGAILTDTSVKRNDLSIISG

SMILES: O=C(O)CCCc1ccc(OCCN(c2ccccc2)c2nccs2)cc1 [NCG46]
- EC50 (human GPR40 (hGPR40)): 21.4 µM
- agonistic activity for GPR40 (in words) (human GPR40 (hGPR40)): showed a specific reactivity
- [Ca^2+]/GPR40 10 μM (ratio vs. LA) (human GPR40 (hGPR40)): 0.30
- selectivity between GPR40 and GPR120 (in words), from Tables 3 and 4 (human GPR120 (hGPR120)): acting relatively mildly for GPR40 but acting strongly for GPR120
- EC50 (human GPR120 (hGPR120)): 5.25 µM
- agonistic activity for hGPR120 (in words) (human GPR120 (hGPR120)): exhibit a similar effect
- [Ca^2+]/GPR120 10 μM (ratio vs. LA) (human GPR120 (hGPR120)): 1.60

SMILES: CN(C)c1ccc(N(CCOc2ccc(CCCC(=O)O)cc2)c2ccccn2)cc1 [NCG54]
- EC50 (human GPR40 (hGPR40)): 24 µM
- agonistic activity for GPR40 (in words) (human GPR40 (hGPR40)): showed a specific reactivity
- [Ca^2+]/GPR40 10 μM (ratio vs. LA) (human GPR40 (hGPR40)): 0.07
- selectivity between GPR40 and GPR120 (in words), from Tables 3 and 4 (human GPR120 (hGPR120)): acting relatively mildly for GPR40 but acting strongly for GPR120
- EC50 (human GPR120 (hGPR120)): 15.8 µM
- agonistic activity for hGPR120 (in words) (human GPR120 (hGPR120)): exhibit a similar effect
- [Ca^2+]/GPR120 10 μM (ratio vs. LA) (human GPR120 (hGPR120)): 0.66
